Assay results from patent US20140045758A1, “Methods for Treating and Preventing Cardiac Dysfunction in Septic Shock” (THE TRUSTEES OF COLUMBIA UNIVERSITY IN THE CITY OF NEW YORK, priority 2011, published 2014).
Values joined by “and” are separate entries in the source; they are usually repeats but may differ in a detail not shown here. Equal entries are not always repeated. “Also recorded” adds a separate entry of the source.

Key:
[1] = cited from earlier work; for hepatic damage: long term use
[2] = tested on: C57BL/6 mice; assay: Assessment of survival after lethal dose of LPS; assay type: in vivo
Excerpt: Control animals received saline and DMSO instead of LPS and rosiglitazone, respectively.

[3] = tested on: C57BL/6 mice; assay: LPS-mediated sepsis: cardiac function by 2D echocardiography (fractional shortening); assay type: in vivo
Procedure: (§1) LPS (5 mg/kg) (Sigma) was administered intraperitoneally (i.p.) in mice. Control mice were treated with equal volume of saline. Cardiac function was assessed by 2D echocardiography 5-6 hours post-LPS administration and mice were sacrificed 2-3 hours later (7-9 hours post-LPS injection).
(§2) Two-dimensional echocardiography was performed on conscious 10 to 12 week-old male and female (n=5-8 per group) mice (Sonos5500 system; Philips Medical Systems).^129Echocardiographic images were recorded in a digital format. Images were then analyzed off-line by a single observer blinded to the murine genotype.^130

[4] = tested on: αMHC-PPARγ mice; assay: LPS in αMHC-PPARγ mice: 2D echocardiography (fractional shortening); assay type: in vivo; conditions: LPS-treated αMHC-PPARγ mice
Procedure: (§3) All procedures involving animals were approved by the Institutional Animal Care and Use Committee at Columbia University. Mice were maintained under appropriate barrier conditions in a 12 hr light-dark cycle and received food and water ad libitum. The animals that were used for this study were C57BL/6 mice and mice expressing specifically in cardiomyocytes peroxisome proliferator activating receptor-γ (αMHC-PPARγ) that are also on the C57BL/6 background. All studies were performed on the different genotypes with littermates as controls. Hearts from these mice were harvested, flash frozen and stored at −80° C. until further use. All analyses involving animals were performed with at least 5 mice per experimental group.
as §1, §2

[5] = tested on: hearts of C57BL/6 mice; assay: Cardiac ATP measurement; assay type: in vivo; conditions: LPS 5 mg/kg, 6-8 h
Procedure: as §1

[6] = tested on: hearts of αMHC-PPARγ mice; assay: Cardiac ATP levels in αMHC-PPARγ mice; assay type: in vivo; conditions: LPS-treated αMHC-PPARγ mice
Procedure: as §1
Cardiac pieces of 10 mg were used to determine ATP levels. Heart pieces were dissolved in ice-cold 0.1% trichloro-acetic acid and centrifuged. Supernatant was resuspended in 50 mM Tris-acetate containing 2 mM EDTA, pH 7.8 and a portion was used to measure ATP. The measurement was performed with the ATP determination kit (Invitrogen) according to the instructions of the manufacturer.

[7] = tested on: hearts of αMHC-PPARγ mice; assay: Western blot of pAMPK and pJNK in hearts of αMHC-PPARγ mice; assay type: in vivo
Procedure: as §1
(§4) Isolated heart tissues or cells were homogenized in PBS containing protease inhibitors and phosphatase inhibitors (Roche, Indianapolis, Ind.). Membrane and cytosolic fractions were separated by ultracentrifugation.20 μg from each fraction was applied to SDS-PAGE and transferred onto nitrocellulose membranes. Antibodies were obtained from Santa Cruz (JNK) and Cell Signaling (phospho-JNK, phospho-AMPK^Thr 172 and total AMPK).

[8] = tested on: cardiac tissue from C57BL/6 mice; assay: Electron microscopy of cardiac mitochondria; assay type: in vivo; conditions: LPS vs saline
Excerpt: Left ventricles from 3-month-old mice were fixed with 2.5% glutaraldehyde in 0.1 M Sorensen's buffer (0.2 M monobasic phosphate/0.2 M dibasic phosphate, 1:4 vol/vol; pH 7.2), postfixed in osmium tetroxide, and embedded in EPON 812 (Electron Microscopy Sciences). Ultrathin sections were stained with uranyl acetate and lead citrate and examined under a JEM-1200ExII electron microscope (JEOL).

[9] = tested on: hearts of C57BL/6 mice; assay: Cardiac mRNA levels by quantitative real-time PCR after LPS; assay type: in vivo; conditions: LPS 5 mg/kg, 6-8 h
[10] = tested on: AC16 cells; assay: PPARα gene expression in LPS-treated human cardiomyocyte cell line; assay type: cell-based; conditions: LPS treatment alone
Excerpt: A human ventricular cardiomyocyte-derived cell line, designated AC-16, was kindly provided by M. M. Davidson.^126 Cells were maintained in Dulbecco's Modified Eagle Medium: Nutrient Mixture F-12 (Ham) (DMEM:F12) (Invitrogen) supplemented with fetal bovine serum (10%) and a mixture of penicillin and streptomycin (1%). Prior to infection with recombinant adenoviruses the medium was changed to 2% heat inactivated horse serum and the cells were infected in at least duplicates with control adenovirus that expresses the Green Fluorescent Protein (Ad-GFP) or the adenovirus expressing the constitutively active form of JNK2 (Ad-JNK2α2) at a multiplicity of infection (MOI) of 10. […] To assess gene expression 48 hours post incubation, cell lysates were collected and analyzed for mRNA and protein expression.
Total RNA was purified from cells or hearts using the TRIzol reagent according to the instructions of themanufacturer (Invitrogen). cDNA was synthesized using the SuperScript III First-Strand Synthesis SuperMix (Invitrogen). cDNA was analyzed with quantitative real-time PCR that was performed with SYBR Green PCRCore Reagents (Stratagene). Incorporation of the SYBRgreen dye into the PCR products was monitored in real time withan Mx3000 sequence detection system (Stratagene). […]

[11] = tested on: cardiac muscle of αMHC-PPARγ mice; assay: [3H]palmitic acid oxidation in cardiac muscle of αMHC-PPARγ mice; assay type: in vivo; conditions: LPS-treated vs saline-treated αMHC-PPARγ mice
Procedure: as §1
FA oxidation was measured in pieces of hearts isolated from 10-12 week old mice. The heart pieces were incubated at 37° C. for 2 h in modified Krebs-Ringerbuffer (MKR: 115 mM NaCl, 2.6 mM KCl, 1.2 mM KH2PO4, 10 mM NaHCO3,10 mM HEPES, pH 7.4) that contained 2% BSA, […] palmitate and 10 μCi/ml 9,10(n)-[^3H]-palmitate and was gassed with 95% O2 and 5% CO2. Water was then extracted with chloroform:methanol (2:1) extraction. Palmitate oxidation was determined by measuring the amount of ^3H2O in the aqueous phase.

[12] = tested on: hearts of C57BL/6 mice; assay: Western blot of pJNK, p-cJun and pAMPK in hearts; assay type: in vivo; conditions: LPS 5 mg/kg; controls (label LPS) or animals given rosiglitazone 35 mg/kg (label rosiglitazone)
Procedure: as §1, §4

[13] = tested on: hearts of αMHC-PPARγ mice; assay: Cardiac mRNA levels in LPS-treated αMHC-PPARγ mice; assay type: in vivo
Procedure: as §3, §1
(§5) Total RNA was purified from cells or hearts using the TRIzol reagent according to the instructions of themanufacturer (Invitrogen). cDNA was synthesized using the SuperScript III First-Strand Synthesis SuperMix (Invitrogen). cDNA was analyzed with quantitative real-time PCR that was performed with SYBR Green PCRCore Reagents (Stratagene). Incorporation of the SYBRgreen dye into the PCR products was monitored in real time withan Mx3000 sequence detection system (Stratagene). Samples were normalized against β-actin.

[14] = tested on: C57BL6 mice; assay: Plasma IL-6 protein levels after LPS; assay type: in vivo; conditions: LPS 5 mg/kg, 6-8 h
Procedure: An animal model of cardiac septic shock was reproduced by treating 10 week old C57BL6 mice with LPS (5 mg/kg of body) for 6-8 h.

[15] = tested on: cardiac RNA from LPS-treated mice; assay: MiR array analysis of cardiac RNA; assay type: in vivo
Excerpt: The next experiment assessed whether the cardiac miR (microRNA) profiles of LPS-treated mice resemble the respective profiles in heart failure. (FIG. 5(A)-(C)).

[16] = tested on: cardiac muscle of C57BL/6 mice; assay: FA oxidation ([3H]palmitate oxidation) in heart pieces; assay type: in vivo; conditions: LPS 5 mg/kg, 6-8 h
Procedure: as §1

[17] = tested on: hearts of C57BL/6 mice; assay: Cardiac mRNA levels by quantitative real-time PCR after LPS; assay type: in vivo
Procedure: as §1, §5

[18] = tested on: patients; conditions: human, in vivo, 3 mg/kg/day; cited from earlier work
[19] = LPS 15 mg/kg, + DMSO (15 mice, F) or + rosiglitazone 33 mg/kg/day (17 mice, M)
[20] = Saline (no LPS) + rosiglitazone 33 mg/kg/day, 8 mice, M

## CCc1ccc(CCOc2ccc(CC3SC(=O)NC3=O)cc2)nc1 (stereo not shown) [Pioglitazone, pioglitazone]
[1]; in vivo
  deleterious effects on blood lipids: fewer deleterious effects on blood lipids

## Cc1c(C)c2c(c(C)c1O)CCC(C)(COc1ccc(CC3SC(=O)NC3=O)cc1)O2 (stereo not shown) [troglitazone]
[1]
  hepatic damage: cause hepatic damage with long term use

## CN(CCOc1ccc(CC2SC(=O)NC2=O)cc1)c1ccccn1 (stereo not shown) [rosiglitazone]
[1]
  hepatic damage: cause hepatic damage with long term use
[2]; [19]
  Survivors 24 h: 17
  Survivors 36 h: 16
  Survivors 48 h: 16
  Survivors 60 h: 15
  Survivors 72 h: 13
[2]; [20]
  Survivors 24 h: 8
  Survivors 36 h: 8
  Survivors 48 h: 8
  Survivors 60 h: 8
  Survivors 72 h: 8

## Cc1cccc(Nc2cc(Cl)nc(SCC(=O)O)n2)c1C [WY-14643]
[3]; LPS 5 mg/kg + WY-14643 30 mg/kg, trend, p=0.09
  improved fractional shortening by: 25%

## lipopolysaccharide [LPS]
[4]
  fractional shortening / cardiac function: remained normal; also recorded: preserved
[5]
  cardiac ATP, reduced by: 44%
[6]
  cardiac ATP content: significantly increased
  cardiac ATP levels, increase: 2.2 fold
[7]; LPS 5 mg/kg, αMHC-PPARγ mice
  JNK activation: activated JNK
[7]; LPS-treated αMHC-PPARγ mice
  phosphorylated AMPK levels: reduced
[8]
  morphology and intracellular arrangement of mitochondria: did not affect
[9]
  cardiac gene expression of inflammation-associated genes (IL-1α, IL-6 and TNFα): increased
  mRNA levels for cardiac PPARα, CD36, LpL, FATP, Cpt1β, PGC-1α and PGC-1β: reduced
[10]
  PPARα expression in human cardiomyocyte cell line: reduces PPARα expression
[11]
  levels of FAO, increase: 2.6 fold
[12]
  phospho-AMPK in heart after LPS: not stimulated; also recorded: reduced phospho-AMPK
  phosphorylation/activation of JNK (and c-Jun) in heart after LPS: induced phosphorylation of JNK; also recorded: activated
[3]; LPS 5 mg/kg alone vs saline, 2D-echocardiography
  reduction in fractional shortening: 50%
[3]; LPS 5 mg/kg of body, 6-8 h, 10 week old mice
  fractional shortening, effect of LPS: reduced fractional shortening
[13]; LPS
  UCP2 mRNA increase: 23.7 fold
  UCP3 mRNA increase: 17.4 fold
[13]; LPS 5 mg/kg
  PDK4 mRNA increase: 5.4 fold
  cardiac CD36 gene expression, reduced by: 93%
  cardiac IL-1α mRNA increase: 23.1 fold and 23 fold
  cardiac IL-6 mRNA increase: 288 fold and 285 fold
  cardiac PGC-1β gene expression, reduced by: 76%
  cardiac TNFα mRNA increase: 12.5 fold
  estrogen-related receptor (ERR)α mRNA: not modulated
  perilipin 2 mRNA: not modulated
  perilipin 5 mRNA, reduced by: 50%
[13]; LPS 5 mg/kg vs saline
  AOX mRNA increase: 27.1 fold
  Cpt1β mRNA increase: 14.3 fold
  PGC-1α mRNA increase: 30.1 fold
  PPARγ mRNA increase: 31.6 fold
  PPARδ mRNA increase: 31.6 fold
  cardiac PPARα mRNA reduction: 77% and 78%
[14]
  plasma IL-6 protein levels: increased
[15]
  miRs associated with heart failure (miR-1, -133, -208, -195, -24, -125b, -199a, 214) affected: none
[2]; [19]
  Survivors 24 h: 14
  Survivors 36 h: 14
  Survivors 48 h: 10
  Survivors 60 h: 5
  Survivors 72 h: 2
[2]; LPS alone 15 mg/kg i.p.
  start of dying post-injection: 36 h
[16]
  FAO, reduced by: 61%
[17]; LPS 5 mg/kg alone
  PDK4 mRNA increase: 16 fold
  cardiac AOX mRNA, increased by: 42%
  cardiac PPARα mRNA levels, reduced by: 78%
  cardiac perilipin 2 mRNA, increased by: 3.3
[17]; LPS 5 mg/kg alone, qRT-PCR
  cardiac IL-1α mRNA increase: 90 fold
  cardiac IL-6 mRNA increase: 1250 fold
  cardiac TNFα mRNA increase: 26 fold
[17]; LPS alone, normal C57BL/6 mice
  cardiac PPARγ (mRNA) levels, increased by: ~60% and 57%
[17]; LPS, hearts of C57BL/6 mice
  gene expression levels of αMHC and βMHC: reduces both αMHC and βMHC
[17]; LPS-treated mice
  switch from α-MHC isoform to β-MHC (cardiac mRNA): did not indicate such change
[17]; any of the treatment groups (rosiglitazone 35 mg/kg, LPS 5 mg/kg, both)
  cardiac PPARδ mRNA: not modulated

## Oblimersen
[18]
  adverse effects in patients: no severe adverse effects
